The values below come from PubChem BioAssay (NCI).

Some test systems named below: KM12 colon; ACHN renal; SF-295 CNS; SNB-75 CNS; COLO 205 colon; NCI-H226 lung; MCF7 breast; NCI-H23 lung; HS 578T breast; BT-549 breast.
Common to all, as to assay: DTP human tumour cell line panel, 48 h

Molecules are shown by their SMILES. Values joined by “and” are separate entries in the source; they are usually repeats but may differ in a detail not shown here. Equal values may be shown once.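 These data come from cells grown in 96-well plates and exposed to compound for 48 hours at five concentrations. GI50 is the concentration that inhibits growth by half. Definition used: TGI = concentration required for complete inhibition of growth.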 A value given as a limit tells only on which side of the number the result lay.

As usually defined, the TGI is the concentration at which net growth stops. A higher TGI goes with lower sensitivity of the cells. Usually GI50 stands for the concentration that inhibits growth by half.

Turning to `O=c1c2ccccc2oc2ccccc12` (tested in a mixture with another compound), the concentration for total growth inhibition (TGI) was over 100 µM in the assay with KM12 colon; over 100 µM in the assay with ACHN renal; 53.3 µM with SF-295 CNS; 7.58 µM in the assay on SNB-75 CNS; over 100 µM in the assay on COLO 205 colon.

For the compound `Cc1ccc2oc(=O)c3c(O)c4cccc(OC5OC(C)C6O[C@@H](c7ccccc7)OC6C5OC5OC(C)C(O)C(O)C5O)c4c4oc(=O)c1c2c34` (stereo not given in full), the TGI with NCI-H226 lung was 0.211 µM; in the assay with KM12 colon it was 1.43 µM and 1.92 µM; with ACHN renal, 1.14 µM and 0.439 µM; in the assay with SF-295 CNS it was 0.523 µM and 1.56 µM; in the assay on MCF7 breast, 2.48 µM; in the assay on NCI-H23 lung, 0.276 µM. Besides, the concentration for total growth inhibition (TGI) is 1.54 µM in the assay on SNB-75 CNS and 1.97 µM in the assay with HS 578T breast. For the same compound, the 50% growth inhibitory concentration (GI50) was 0.0486 µM in the assay on KM12 colon; 0.0559 µM in the assay with ACHN renal; 0.0449 µM in the assay on SF-295 CNS; 0.0307 µM with NCI-H23 lung; 0.0807 µM in the assay with COLO 205 colon.

In the case of `O=C(O)c1c2c(cc3c(=O)c4ccccc4[nH]c13)CCCC2`, the TGI with NCI-H226 lung, in the assay with ACHN renal, in the assay on SF-295 CNS, in the assay on NCI-H23 lung, with SNB-75 CNS and with COLO 205 colon was over 100 µM each time.

`O=c1cc[nH]cc1-c1c[nH]ccc1=O`: the TGI in the assay on NCI-H226 lung, with KM12 colon, in the assay with ACHN renal, in the assay with SF-295 CNS, in the assay with NCI-H23 lung and with SNB-75 CNS was over 100 µM in each case. Further, the total growth inhibition concentration (TGI) with COLO 205 colon is over 100 µM.

With `COC(=O)/C(C#N)=C1\CCC(OC)N1C` (stereo not given), the TGI in the assay with NCI-H226 lung, in the assay with KM12 colon, in the assay on ACHN renal, with SF-295 CNS, with NCI-H23 lung and with SNB-75 CNS was over 100 µM each time. In addition, the TGI with COLO 205 colon is over 100 µM.

For `CN1CCN=C1c1nnn(-c2ccc([N+](=O)[O-])cc2)c1-c1ccccc1`, the total growth inhibition concentration (TGI) with NCI-H226 lung, in the assay on KM12 colon, with ACHN renal, with SF-295 CNS, with NCI-H23 lung and in the assay with SNB-75 CNS was over 100 µM throughout. The compound also registered a total growth inhibition concentration (TGI) in the assay with COLO 205 colon of over 100 µM.

On to `CS(=O)(=O)c1ccc(COP(N)(=O)N(CCCl)CCCl)cc1` (stereo not given), for which the concentration for total growth inhibition (TGI) in the assay with NCI-H226 lung, with KM12 colon, in the assay with ACHN renal, in the assay on SF-295 CNS, in the assay on NCI-H23 lung and in the assay with SNB-75 CNS was over 100 µM throughout. The compound further registered a TGI with COLO 205 colon of over 100 µM.

On to `O=[N+]([O-])c1cc(/C=N\NS(=O)(=O)c2ccc(Cl)cc2)c(O)c([N+](=O)[O-])c1`, for which the concentration for total growth inhibition (TGI) was 67.1 µM in the assay on KM12 colon; over 100 µM in the assay on ACHN renal; over 100 µM in the assay with SF-295 CNS; 50.8 µM in the assay on NCI-H23 lung; 73.5 µM in the assay with SNB-75 CNS; 31 µM in the assay with COLO 205 colon.

Consider `C=CCC12CC(=O)CCC1c1ccc(OC)cc1C2=O` (stereo not given), for which the concentration for total growth inhibition (TGI) in the assay on NCI-H226 lung, with KM12 colon, with ACHN renal, with SF-295 CNS, with NCI-H23 lung and in the assay with SNB-75 CNS was over 100 µM each time. Besides, in the assay with COLO 205 colon, the TGI is over 100 µM.

Turning to `COc1cc2c(cc1OC)C(C(CBr)CBr)N(C1CCCC1)CC2` (stereo not given), the concentration for total growth inhibition (TGI) with NCI-H226 lung, in the assay on KM12 colon, in the assay with ACHN renal, with SF-295 CNS, with NCI-H23 lung and in the assay with SNB-75 CNS was over 100 µM throughout. In the assay on COLO 205 colon, this compound came in with a total growth inhibition concentration (TGI) of over 100 µM.

As to `C1CSC[C@H]2COC[C@@H](CSCCS1)S2`, the TGI in the assay with KM12 colon, with SF-295 CNS, in the assay with MCF7 breast, in the assay on NCI-H23 lung, in the assay with SNB-75 CNS and in the assay with BT-549 breast was over 100 µM in each case. Moreover, in the assay with COLO 205 colon, the TGI is over 100 µM.

Regarding `Cc1ccc(N2C(=O)/C(=C/c3ccc(N(CCC#N)CCC#N)cc3)N=C2COc2ccc(Cl)cc2Cl)cc1`, the TGI in the assay with NCI-H226 lung, in the assay with KM12 colon, in the assay on ACHN renal, in the assay on SF-295 CNS, with NCI-H23 lung and in the assay on SNB-75 CNS was over 100 µM throughout. Besides, the TGI in the assay with COLO 205 colon was over 100 µM.

With `CC(C)N(C(=O)C12C3C4C5(C(=O)O)C(C1C35I)C42C(=O)O)C(C)C` (stereo not given), the TGI with NCI-H226 lung, with KM12 colon, in the assay with ACHN renal, with SF-295 CNS, in the assay with NCI-H23 lung and in the assay on SNB-75 CNS was over 100 µM in each case. This compound yielded a TGI in the assay with COLO 205 colon of over 100 µM.

Consider `COc1ccc(-c2cc3ccccc3[nH]c2=O)cc1OC`, for which the TGI in the assay with NCI-H226 lung, in the assay on KM12 colon, in the assay on ACHN renal, in the assay on SF-295 CNS, in the assay on NCI-H23 lung and in the assay with SNB-75 CNS was over 100 µM each time. The compound further showed a total growth inhibition concentration (TGI) with COLO 205 colon of over 100 µM.

Turning to `CCC1CCCCN1CC(C(C)=O)C(c1ccccc1)c1c(O)c2ccccc2oc1=O` (stereo not given), the concentration for total growth inhibition (TGI) in the assay on NCI-H226 lung, in the assay with KM12 colon, in the assay with ACHN renal, in the assay on SF-295 CNS, in the assay on NCI-H23 lung and in the assay on SNB-75 CNS was over 100 µM in each case. In the assay on COLO 205 colon, the TGI is over 100 µM.

In the case of `CCCCCCC(=O)C/C(CCC(=O)N(Cc1ccccc1)Cc1ccccc1)=N\NC(N)=O`, the TGI with NCI-H226 lung, in the assay on KM12 colon, with ACHN renal, in the assay on SF-295 CNS, in the assay on NCI-H23 lung and in the assay with SNB-75 CNS was over 100 µM throughout. The compound further showed a TGI in the assay on COLO 205 colon of over 100 µM.

Consider `N#C/C(=C/N1CCN(C(=O)c2ccco2)C1=S)C(=O)Nc1ccc(Cl)cc1`, for which the GI50 in the assay with KM12 colon was 16.3 µM; in the assay with ACHN renal, 15.3 µM; in the assay with SF-295 CNS, 20.2 µM; in the assay on MCF7 breast it was 21 µM; in the assay with NCI-H23 lung, 12.3 µM; with SNB-75 CNS it was over 50 µM. Also, the values for the GI50 with BT-549 breast and with COLO 205 colon were 8.63 µM and 25.6 µM, respectively. Besides, the TGI is over 50 µM in the assay on KM12 colon; 42.2 µM with ACHN renal; over 50 µM with SF-295 CNS; over 50 µM in the assay on MCF7 breast; 33.5 µM in the assay with NCI-H23 lung; over 50 µM in the assay on SNB-75 CNS. The total growth inhibition concentration (TGI) in the assay on BT-549 breast is 21.9 µM; in the assay on COLO 205 colon, over 50 µM.
